Source: patent US11013696B2, “Lipids and lipid compositions for the delivery of active agents” (Novartis AG, priority 2013, dated 2021)

Assays:
[1] = siRNA encapsulation in lipid nanoparticles (SYBR Gold); format: physicochemical; settings: Table 2; FVII siRNA in LNP with the cationic lipid
Protocol: The lipid nanoparticles (LNPs) were formed by mixing equal volumes of lipids dissolved in alcohol with siRNA dissolved in a citrate buffer by an impinging jet process. The lipid solution contains a cationic lipid compound of the invention, a helper lipid (cholesterol), an optional neutral lipid (DSPC) and a PEG (PEG) lipid at a concentration of 8-16 mg/mL with a target of 12 mg/mL in an alcohol. The siRNA to total lipid ratio is approximately 0.05 (wt/wt). Where a LNP formulation contains four lipid components, the molar ratios of the lipids ranges from 20 to 70 mole percent for the cationic lipid with a target of 40-60, the mole percent of helper lipid ranges from 20 to 70 with a target of 30 to 50, the mole percent of neutral lipid ranges from 0-30, the mole percent of PEG lipid has a range from 1 to 6 with a target of 2 to 5. The concentration of siRNA solution ranges from 0.7 to 1.0 mg/mL with a target of 0.8 to 0.9 mg/mL in a sodium citrate: sodium chloride buffer pH 4-6, with a target of 4.5-5.5. The LNPs are formed by mixing equal volumes of lipid solution in ethanol with siRNA dissolved in a citrate buffer by an impinging jet process through a mixing device with ID ranging from 0.25 to 2.0 mm at a flow rate from 10 to 640 mL/min. The mixed LNP solution is held at room temperature for 0-24 hrs prior to a dilution step. The solution is then concentrated and diafiltered with suitable buffer by ultrafiltration or dialysis process using membranes with a MW cutoff from 30 to 500 KD. The final product is sterile filtered and stored at 4° C.
The lipid nanoparticles (LNPs) were formed by mixing equal volumes of lipids dissolved in alcohol with siRNA dissolved in a citrate buffer by an impinging jet process. The lipid solution contains a cationic lipid compound of the invention, a helper lipid (cholesterol), an optional neutral lipid (DSPC) and a stealth lipid (5010, S024, S027, or S031) at a concentration of 8-16 mg/mL with a target of 12 mg/mL in an alcohol. The siRNA to total lipid ratio is approximately 0.05 (wt/wt). Where a LNP formulation contains four lipid components, the molar ratios of the lipids ranges from 20 to 70 mole percent for the cationic lipid with a target of 40-60, the mole percent of helper lipid ranges from 20 to 70 with a target of 30 to 50, the mole percent of neutral lipid ranges from 0-30, the mole percent of PEG lipid has a range from 1 to 6 with a target of 2 to 5. The concentration of siRNA solution ranges from 0.7 to 1.0 mg/mL with a target of 0.8 to 0.9 mg/mL in a sodium citrate: sodium chloride buffer pH 4-6, with a target of 4.5-5.5. The LNPs are formed by mixing equal volumes of lipid solution in ethanol with siRNA dissolved in a citrate buffer by an impinging jet process through a mixing device with ID ranging from 0.25 to 2.0 mm at a flow rate from 10 to 640 mL/min. The mixed LNP solution is held at room temperature for 0-24 hrs prior to a dilution step. The solution is then concentrated and diafiltered with suitable buffer by ultrafiltration process using membranes with a MW cutoff from 30 to 500 KD. The final product is sterile filtered and stored at 4° C.
SYBR Gold flourescence reagent is used for the determination of siRNA encapsulation in the DLP's. DLP's with and without triton x-100 are used to determine the free siRNA and total siRNA amounts. DLP's samples with and without triton X-100 were excited at 485 nm and flourescence emission is measured at 530 nm. Encapsulation efficiency is calculated based on the following formula: Encapsulation efficiency:[([…])/(total siRNA concentration)]×100% Encapsulation Data

[2] = Percent encapsulation of mRNA in lipid nanoparticles (Quant-iT Ribogreen); format: physicochemical; settings: Table 2; leptin mRNA in LNP with the cationic lipid
Protocol: All equipment and disposable supplies are certified free of RNase activity by the manufacturer or rendered RNase free by use of the RNaseZap reagent (LifeTechnologies). mRNA is encapsulated at a cationic lipid amine to mRNA phosphate (N:P) molar ratio of 4:1. Lipids (cationic lipid, DSPC, cholesterol and lipidated PEG or stealth lipid) are dissolved in ethanol. The molar ratios are 40:10:38:2, respectively. The mixture is sonicated briefly, then gently agitated for 5 minutes and then maintained at 37° C. until use. mRNA is exchanged into citrate buffer pH 5.8-6.0 by use of Amicon Ultra-15 centrifugal concentrators, and the final concentration is adjusted to 0.5 mg/ml and held at 37° C. until use. An equal volume of lipids in ethanol, mRNA in citrate buffer, and citrate buffer alone are drawn into disposable syringes. Tubing leading from syringes containing lipids and mRNA are attached to the T junction, and tubing leading from the syringe containing citrate buffer alone is paired with the tubing exiting the T-junction over a collection vessel containing a stir bar on an active stir plate. Syringes are placed in a syringe pump set to expel contents at a flow rate of 1 ml per minute.
The pump is activated, and the collected mRNA in lipid nanoparticles is transferred to SnakeSkin dialysis tubing (10,000 MWCO, Thermo Scientific). Material is dialyzed against RNAse- and pyrogen-free 1× phosphate buffered saline overnight at 4° C.
Percent encapsulation of mRNA in lipid nanoparticles is determined using the Quant-iT Ribogreen RNA Assay kit (Life Technologies). The LNP-mRNA suspension is assayed in buffer (mRNA outside the particle), and buffer plus Triton X-100 detergent (total mRNA). The difference calculated is the mRNA inside the particle. Prepare a 1000 ng/mL stock from the RNA provided in the kit and use this to generate a standard curve (0 ng/ml, 15.63-1000 ng/ml) in TE and TE+0.75% Triton X-100. Prepare LNP-mRNA samples in TE buffer and TE buffer +0.75% Triton X-100 with appropriate dilution so that reading is in the range of standard curve (400-2,000 fold). In a 384-well plate (Costar non-treated #3573) add 0.04 ml of standard (in duplicate) or sample (in triplicate) per well. Dilute Ribogreen reagent 240-fold in TE buffer and add 0.06 ml per well. Mix contents of wells and measure fluorescence (excitation=480 nm, emission=520 nm). Subtract background values (no RNA) from standard and test sample values and determine the concentrations of RNA in the samples using the standard curves. Determine the percent encapsulation of the sample by dividing the difference in concentrations between sample+triton and sample in buffer alone by the sample+triton concentration.

Structure (SMILES) | % encapsulation siRNA FVII [1] [%] | % encapsulation mRNA Leptin [2] [%]
CCCCCCCCCCCCC(CCOC(=O)CCCCCC(COC(=O)CCCCCCC)COC(=O)CCCCCCC)OC(=O)OCCCN(CC)CC (stereo not drawn) [Example 6, 2-(10-dodecyl-3-ethyl-8,14-dioxo-7,9,13-trioxa-3-azanonadecan-19-yl)propane-1,3-diyl dioctanoate] | 91.7 | 24.0
CCCCCCCCCCCCC(CCOC(=O)CCCCCCC(COC(=O)CCCCCCC)COC(=O)CCCCCCC)OC(=O)OCCCN(CC)CC (stereo not drawn) [Example 9, 2-(10-dodecyl-3-ethyl-8,14-dioxo-7,9,13-trioxa-3-azaicosan-20-yl)propane-1,3-diyl dioctanoate] | 91.0 | 96.6
CCCCCCCCCCCCC(CCOC(=O)CCCCCCC(COC(=O)CCCCCCC)COC(=O)CCCCCCC)OC(=O)OCCCN(C)C (stereo not drawn) [Example 10, 2-(9-dodecyl-2-methyl-7,13-dioxo-6,8,12-trioxa-2-azanonadecan-19-yl)propane-1,3-diyl dioctanoate] | 89.9 | 88.4
CCCCCCCCCCCCC(CCOC(=O)CCC(OCCCCCCCC)OCCCCCCCC)OC(=O)OCCCN(CC)CC (stereo not drawn) [Example 11, 3-(((3-(diethylamino)propoxy)carbonyl)oxy)pentadecyl 4,4-bis(octyloxy)butanoate] | 89.7 | 98.2
CCCCCCCCCCCCC(CCOC(=O)CCC(OCC(CCC)CCC)OCC(CCC)CCC)OC(=O)OCCCN(CC)CC (stereo not drawn) [Example 13, 3-(((3-(diethylamino)propoxy)carbonyl)oxy)pentadecyl 4,4-bis((2-propylpentyl)oxy)butanoate] | 90.3 | 81.1
CCCCCCCCCCCCC(CCOC(=O)CCC(OCC(CCC)CCC)OCC(CCC)CCC)OC(=O)OCCCN(C)CC (stereo not drawn) [Example 14, 3-(((3-(ethyl(methyl)amino)propoxy)carbonyl)oxy)pentadecyl 4,4-bis((2-propylpentyl)oxy)butanoate] | 88.0 | 99.4
CCCCCCCCCCCCC(CCOC(=O)CCC(OCC(CCC)CCC)OCC(CCC)CCC)OC(=O)OCCCN(C)C (stereo not drawn) [Example 15, 3-(((3-(dimethylamino)propoxy)carbonyl)oxy)pentadecyl 4,4-bis((2-propylpentyl)oxy)butanoate] | 91.0 | 98.9
CCCCCCCCCCCCC(CCOC(=O)CCCCC(OCCCCCC)OCCCCCC)OC(=O)OCCCN(CC)CC (stereo not drawn) [Example 17, 3-(((3-(diethylamino)propoxy)carbonyl)oxy)pentadecyl 6,6-bis(hexyloxy)hexanoate] | 88.3 | 84.6
CCCCCCCCCCCCC(CCOC(=O)CCCCCCC(OCC(CCC)CCC)OCC(CCC)CCC)OC(=O)OCCCN(CC)CC (stereo not drawn) [Example 21, 3-(((3-(diethylamino)propoxy)carbonyl)oxy)pentadecyl 8,8-bis((2-propylpentyl)oxy)octanoate] | 91.2 | 98.2
CCCCCCCCCCCCC(CCOC(=O)CCCCCCC(OCC(CCC)CCC)OCC(CCC)CCC)OC(=O)OCCCN(C)CC (stereo not drawn) [Example 22, 3-(((3-(ethyl(methyl)amino)propoxy)carbonyl)oxy)pentadecyl 8,8-bis((2-propylpentyl)oxy)octanoate] | 91.7 | 99.2
CCCCCCCCCCCCC(CCOC(=O)CCCCCCC(OCC(CCC)CCC)OCC(CCC)CCC)OC(=O)OCCCN(C)C (stereo not drawn) [Example 23, 3-(((3-(dimethylamino)propoxy)carbonyl)oxy)pentadecyl 8,8-bis((2-propylpentyl)oxy)octanoate] | 92.0 | 98.0
CCCCC/C=C\C/C=C\CCCCCCCC(=O)OCCC(CCCCCCCCCCCC)OC(=O)OCCCN(C)CC (stereo not drawn) [Example 45, (9Z,12Z)-3-(((3-(ethyl(methyl)amino)propoxy)carbonyl)oxy)pentadecyl octadeca-9,12-dienoate] | 86.4 | 88.2
CCCCCCCCCCCCCC(=O)OCC(COC(=O)CCCCCCCCCCCCC)OC(=O)CCC(CCCCCCCCCCCC)OC(=O)OCCCN(CC)CC (stereo not drawn) [Example 84, 2-((4-(((3-(diethylamino)propoxy)carbonyl)oxy)hexadecanoyl)oxy)propane-1,3-diyl ditetradecanoate] | 77.5 | 83.1
CCCCCCCCCCCCC(CCC(=O)OC(COC(=O)CCCCCCCCCCC)COC(=O)CCCCCCCCCCC)OC(=O)OCCCN(CC)CC (stereo not drawn) [Example 88, 2-((4-(((3-(diethylamino)propoxy)carbonyl)oxy)hexadecanoyl)oxy)propane-1,3-diyl didodecanoate] | 77.4 | 39.2
CCCCC/C=C\C/C=C\CCCCCCCC(=O)OCCN(CCOC(=O)CCCCCCC/C=C\C/C=C\CCCCC)C(=O)CCC(CCCCCCCCCCCC)OC(=O)OCCCN(CC)CC (stereo not drawn) [Example 103, (9Z,12Z)-10-dodecyl-3-ethyl-14-(2-((9Z,12Z)-octadeca-9,12-dienoyloxy)ethyl)-8,13-dioxo-7,9-dioxa-3,14-diazahexadecan-16-yl octadeca-9,12-dienoate] | 83.2 | 72.5
